Assay [1] relates to LPS (E. coli serotype 055:B5). As to conditions: ref Torrent et al. [24]; cited from earlier work. The source says: To investigate the interaction of B2088 with LPS, we performed the BODIPY TR cadaverine (BC) displacement assay reported by Wood et al.[22]. The probe binds to the lipid A part of the LPS with moderate affinity and can be displaced by putative LPS-binding molecules. The method was used to probe the affinity of polycationic molecules and LPS binding proteins. First, we determined the affinity of polymyxin B (PMB), a lipopeptide cyclic antibiotic which has a high affinity for LPS.

Assay [2] concerns P. aeruginosa ATCC 9027 and P. aeruginosa DM4877/07 strains. In words: Time-kill kinetics. Type of assay: cell-based. Particulars: ¼ × MIC of B2088 alone, 0–24 h, MHB, 37 °C. The source says: It is likely that disruption of the supramolecular organization of LPS could enhance the intracellular accessibility of the antibiotics thus rendering the micro-organisms susceptible at sub-lethal concentration of the drugs. To confirm this, we performed time-kill kinetics at sub-lethal concentration of B2088, antibiotics and their combinations against two different P. aeruginosa strains. […] The effect was quite remarkable for the B2088-gatifloxacin combination as >5 log10 reduction in CFU/ml was apparent in less than 2 h against two different P. aeruginosa strains.
Figure 6 Antimicrobial efficacy of B2088-antibiotics combinations. Time-kill kinetics showing synergism between B2088 and other antibiotics. (a) B2088 and gatifloxacin against P. aeruginosa ATCC 9027 strains. (b) B2088 and gatifloxacin against P. aeruginosa DM4877/07 strains. (c) B2088 and tobramycin against P. aeruginosa DM4877/07 strains. (d) B2088 and chloramphenicol against P. aeruginosa DM4877/07 strains. Note that for simplicity B2088 and the antibiotics are represented by single letter codes (B – B2088, G – gatifloxacin, T – tobramycin, C – chloramphenicol).
The kinetics of bactericidal action of is assessed by using each drug alone or in combinations at their sub-inhibitory MICs. […]

Positions of bridges follow the written chain, without caps; N, C: chain ends. Non-standard residues stand in square brackets, D forms with d. Residues, ends and D or L forms follow the SMILES beside them. Chains are numbered I, II in the order given. *: point of attachment. X1 = CC[C@H](C)CCCCC(=O)*; Dab = NCC[C@H](N)C(=O)O

Regarding `CC[C@H](C)CCCCC(=O)N[C@@H](CCN)C(=O)N[C@H](C(=O)N[C@@H](CCN)C(=O)N[C@H]1CCNC(=O)[C@H]([C@@H](C)O)NC(=O)[C@H](CCN)NC(=O)[C@H](CCN)NC(=O)[C@H](CC(C)C)NC(=O)[C@@H](Cc2ccccc2)NC(=O)[C@H](CCN)NC1=O)[C@@H](C)O` [Polymyxin B, polymyxin B, reference compound] (X1-[Dab]T[Dab][Dab][Dab][dF]L[Dab][Dab]T; lactam 4-C (inferred); N-terminus assumed), the “ED50 (BC displacement from LPS), literature value” in assay [1] was 2500 ± 100 nM.

As to `CC(C)[C@H](NC(=O)[C@H](CCCCN)NC(=O)[C@H](CCCNC(=N)N)NC(=O)CNC(=O)[C@@H](N)CCCNC(=N)N)C(=O)N[C@H](C(=O)N[C@@H](CCCNC(=N)N)C(=O)N[C@@H](CCCNC(=N)N)C(=O)NCCCC[C@H](NC(=O)[C@H](CCCNC(=N)N)NC(=O)[C@H](CCCNC(=N)N)NC(=O)[C@@H](NC(=O)[C@@H](NC(=O)[C@H](CCCCN)NC(=O)[C@H](CCCNC(=N)N)NC(=O)CNC(=O)[C@@H](N)CCCNC(=N)N)C(C)C)C(C)C)C(=O)N[C@@H](CCCCN)C(=O)O)C(C)C` [B2088] (I: H-RGRKVVRRKK-OH / II: H-RGRKVVRR; amide I:9-II:C; N-terminus and C-terminus assumed), the Time-kill outcome in assay [2] is on record as “no bacteriostatic or bactericidal activity”.

These data come from article PMC4865820, “Branched Peptide, B2088, Disrupts the Supramolecular Organization of Lipopolysaccharides and Sensitizes the Gram-negative Bacteria” (Scientific Reports, 2016).
